Laboratory results from US20260355154A1, “IMPLANTS, COMPOSITIONS, AND METHODS FOR TREATING RETINAL DISEASES AND DISORDERS” (Osanni Bio, Inc., priority 2024, published 2026).
Like-named read-outs stand apart in the source and are kept apart here.

Legend:
[1] = tested on: human embryonic stem-cell derived retinal pigmented epithelium (hESC-RPE); experiment: Drusen in vitro assay: APOE/APOE4 deposition induced by 5% human serum; format: cell-based; details: for minimal effective concentration: Embryonic stem cell, hESC-RPE, 24 h pre-incubation, then 48 h with 5% human serum
Procedure: (§1) Retinal Pigmented Epithelium Cell Culture: Human embryonic stem-cell derived retinal pigmented epithelium (hESC-RPE) were cultured on Transwell inserts for at least 4 weeks in serum-free XVIVO culture medium. After 4 weeks, polygonal, pigmented monolayers of hESC-RPE were visualized by phase contrast and bright-field microscopy, indicating appropriately matured RPE cells. Drusen assay experiments were performed after the initial 4-week maturation period.
(§2) Drusen Assay: Matured hESC-RPE monolayers were incubated with 5% complement competent human serum (HS) for 48 hours to elicit Drusen formation. After the 48 hour HS incubation period, hESC-RPE monolayers (whole inserts) were fixed with 4% paraformaldehyde for 10 minutes at room temperature. Following fixation, inserts were individually removed from plates and cut out of their holders using a scalpel yielding individual membranes with hESC-RPE monolayers. Membranes were transferred to 24-well plates for storage in phosphate buffered saline with calcium and magnesium (PBS+/+).
Drusen Assay with Atorvastatin Treatment: Matured hESC-RPE inserts were pre-incubated with varying concentrations of atorvastatin (ranging from […]) in both the top and bottom insert compartments for 24 hours in an incubator set at 37 °C with 5% CO2. On the following day, medium was exchanged with fresh culture medium containing atorvastatin and 5% HS and incubated for an additional 48 hours in an incubator set at 37 °C with 5% CO2. After 48 hour incubation period, inserts were fixed and processed for antibody staining.
Fixed membranes were incubated with block solution containing 1% bovine serum albumin (BSA) and 0.1% Triton X in PBS+/+ for 1 hr at room temperature. After the block incubation period, membranes were incubated overnight at 4 °C with primary antibody solution containing 1% BSA and goat anti-APOE4 antibody (1:250) and mouse anti-C5b9 antibody (1:250). On the following day, membranes were washed thrice for 10 min with PBS+/+ and incubated with secondary antibody solution containing 1% BSA and AlexaFluor donkey anti-goat 546 (1:200) and AlexaFluor donkey anti-mouse 488 (1:200) for 1 hr at room temperature in the dark. Following secondary antibody incubation period, membranes were washed thrice for 10 min with PBS+/+ and counterstained with Hoechst solution (1:1000) in PBS+/+ for 10 min at room temperature. Membranes were then transferred to microscope slides and mounted using ProLong Gold anti-fade solution and coverslips. Slides were imaged using a Leica SP8 Scanning Resonant Confocal Microscope using identical settings and laser power. At least 3 fields of view were collected per sample.
Image quantification and figure preparation: Fiji (Image J) software was used for processing all the images. All images were processed with the parameters described below: Contrast adjustment—the value of contrast for the APOE4 channel was set to 90-230 to improve the accuracy of object observation. Thresholding—the cutoff value of the threshold for the APOE4 channel was set as 100 to 255 to identify the pixels as real expressions. Size-Particles with an area larger than 1.5 A.U. were counted as true APOE4 expressions to minimize the likelihood of false positives in the image. Measurements, including deposit counts and the total area, were then exported as a .csv file for analysis. All images were taken in triplicate per treatment. Results are presented as mean±SEM and were graphed using Graph Pad PRISM v6. Statistical significance was established using one-way ANOVA tests followed by Tukey's multiple comparisons test.

[2] = tested on: human embryonic stem-cell derived retinal pigmented epithelium (hESC-RPE); experiment: Complement activity: C5b-9 immunostaining in human serum-treated hESC-RPE; format: cell-based; details: increasing concentrations of atorvastatin; 5% human serum; FIG. 4
Procedure: as §1
as §2, with “(PBS+/+). […]” for “(PBS+/+).”
Image quantification and figure preparation: Fiji (Image J) software was used for processing all the images. […] Size-Particles with an area larger than 1.5 A.U. were counted as true APOE4 expressions to minimize the likelihood of false positives in the image. […]

eye = details: applied topically in the eye; Grant, Toxicology of the Eye; cited from earlier work
[3] = cited from earlier work

| SMILES | minimal effective concentration ([1]; read-out: concentration from which APOE deposition area decreased (starting at)) [µM] | minimal effective concentration ([1]; read-out: concentration from which total counts of APOE deposits decreased (starting at)) [µM] | total counts of APOE deposits at higher ATV concentrations ([1]; higher ATV concentrations (above 123 nM), 5% human serum, 48 h) | APOE deposition area at higher ATV concentrations ([1]; higher ATV concentrations (above 370 nM), 5% human serum, 48 h) | APOE deposition (area) ([1]; increasing atorvastatin concentrations, 5% human serum, 48 h) | total counts of APOE deposition ([1]; increasing atorvastatin concentrations, 5% human serum, 48 h, FIG. 3) | expression of APOE4 per field of view ([1]; increasing concentrations of atorvastatin, 5% human serum, FIG. 3) | C5b-9 expression / C5b-9 positive puncta per field of view [2] | eye damage on topical application (eye) | in vivo metabolism ([3]; in vivo, Handbook of Pesticide Toxicology) | excretion ([3]; urine, after oxidation of benzyl alcohol to benzoic acid and conjugation with glucuronic acid) | excretion (minor route) ([3]; urine, to a lesser extent, benzoic acid conjugated with glycine) |
| --- | --- | --- | --- | --- | --- | --- | --- | --- | --- | --- | --- | --- |
| CC(C)c1c(C(=O)Nc2ccccc2)c(-c2ccccc2)c(-c2ccc(F)cc2)n1CC[C@@H](O)C[C@@H](O)CC(=O)O [Atorvastatin, atorvastatin] | 0.37 | 0.123 | nearly complete elimination | nearly complete elimination | reduced APOE deposition dose-dependently | reduced the total counts of APOE deposition dose-dependently | decreased expression of APOE4 | reduces APOE4 and C5b-9 expression |  |  |  |  |
| O=C(OCc1ccccc1)c1ccccc1 [Benzyl benzoate] |  |  |  |  |  |  |  |  | no damage | hydrolyzed to benzoic acid and benzyl alcohol | excreted in the urine as benzoylglucuronic acid | excreted in the urine as hippuric acid |
